How the values were obtained:
Assay type in all cases: in vivo, human
[1] = Oral administration of adenylosuccinate in clinical trials
Text: The administration of the adenylosuccinate may be accomplished via several approaches. It is possible to administer adenylosuccinate by means of a sub-cutaneous pump. […] Alternatively, adenylosuccinate might be suitably packaged for timed release or trans-dermal application.

[2] = system: pseudohypertrophic muscular dystrophy patients; test: Treatment of pseudohypertrophic muscular dystrophy patients with 4SAS
ALS patient = test: Treatment of an ALS patient with oral 4SAS; conditions: ALS patient previously unable to speak; oral dosage
patient of advanced age = test: Treatment of a patient of advanced age with oral 4SAS; conditions: patient in early 70s; oral dosage

| Compound | efficacy of oral administration [1] | Improved? ([2]; Patient A, severity 1, therapy 81-89, 1 mg-10 mg, 10-20 mg, 100 mg, 200 mg) | Improved? ([2]; Patient C, severity 3, therapy 81-84, 1 mg-10 mg, 10-20 mg) | Improved? ([2]; Patient D, severity 4, therapy 81-84, 1 mg-10 mg, 10-20 mg) | Improved? ([2]; Patient E, severity 5, therapy 81-84, 1 mg-10 mg, 10-20 mg) | Improved? ([2]; Patient F, therapy 88-89, 70 mg) | Improved? ([2]; Patient G, therapy 87-89, 150 mg, 333 mg) | Improved? ([2]; Patient H, therapy 88-89, 200 mg, 300 mg) | Improved? ([2]; Patient I, therapy 86-89, 10 mg, 25 mg, 100 mg) | Improved? ([2]; Patient J, therapy 86-89, 1200 mg) | Improved? ([2]; Patient K, therapy 87-89, 200 mg, 300 mg) | Improved? ([2]; Patient L, therapy 87-89, dosage small) | Improved? ([2]; Patient N, therapy 89-89, 300 mg) | strength and related functionality ([2]; thirteen young PMD patients at various stages, intraperitoneal, subcutaneous and oral dosages) | capacity to speak (ALS patient) | energy (patient of advanced age) | healing (patient of advanced age) | posture (patient of advanced age) |
| --- | --- | --- | --- | --- | --- | --- | --- | --- | --- | --- | --- | --- | --- | --- | --- | --- | --- | --- |
| O=C(O)CC(Nc1ncnc2c1ncn2[C@@H]1O[C@H](COP(=O)(O)O)[C@@H](O)[C@H]1O)C(=O)O (stereo partly drawn) [adenylosuccinate] | proven efficacious | – | – | – | – | – | – | – | – | – | – | – | – | – | – | – | – | – |
| O=C([O-])C[C@H](Nc1ncnc2c1ncn2[C@@H]1O[C@H](COP(=O)([O-])[O-])[C@@H](O)[C@H]1O)C(=O)[O-].[Na+].[Na+].[Na+].[Na+] [4SAS, tetrasodium adenylosuccinate] | – | Yes | Yes | Yes | Yes | Yes | Yes | Yes | Yes | Yes | Yes | Yes | Yes | increased strength and related functionality | temporarily regained capacity to speak intelligibly | increased energy | accelerated healing | improved posture |

From US20150182546A1, “THERAPEUTIC AGENT FOR ENHANCING MITOCHONDRIAL FUNCTION” (Mitochondrial Concepts LLC, priority 2013, published 2015)
